Data from US10214508B2, “Nitrogen-containing heterocyclic compound” (Takeda Pharmaceutical Company Limited, priority 2014, dated 2019).
Where a name gives a salt, the structure may show the parent alone.

Target: T1, human M1 receptor (hCHRM1) (Homo sapiens, UniProt P11229)
T1 construct: expressed in transfected cells
T1 sequence (P11229 1-460): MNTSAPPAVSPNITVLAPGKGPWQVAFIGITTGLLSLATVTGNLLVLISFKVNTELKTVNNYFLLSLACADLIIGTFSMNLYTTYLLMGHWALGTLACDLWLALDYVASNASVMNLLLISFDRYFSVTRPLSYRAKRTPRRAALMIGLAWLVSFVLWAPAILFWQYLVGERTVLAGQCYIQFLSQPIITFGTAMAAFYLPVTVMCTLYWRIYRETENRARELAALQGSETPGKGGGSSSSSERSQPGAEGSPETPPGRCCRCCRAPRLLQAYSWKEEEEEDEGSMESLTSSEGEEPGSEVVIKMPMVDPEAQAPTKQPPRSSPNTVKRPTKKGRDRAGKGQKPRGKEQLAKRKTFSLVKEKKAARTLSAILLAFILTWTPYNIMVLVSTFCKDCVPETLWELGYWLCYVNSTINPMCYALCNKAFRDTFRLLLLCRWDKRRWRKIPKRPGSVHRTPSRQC
Assay: Measurement of M1 receptor positive allosteric modulator (M1PAM) activity, calcium fluorescence (FLIPRtetra)
Assay type: cell-based
Conditions: 10 μM test compound with acetylcholine at EC20 (final 0.6-0.8 nM); 100% = acetylcholine 1 μM, 0% = DMSO; CHO-K1 cells expressing hCHRM1
Experimental: Measurement of M1 Receptor Positive Allosteric Modulator (M1PAM) Activity
The activity of a test compound in the presence of acetylcholine at EC20 concentration (final concentration 0.6-0.8 nM), which affords an action corresponding to about 20% of the maximum activity, was measured as PAM activity. The method is as follows. CHO-K1 cells stably expressing a human M1 receptor (hCHRM1) were plated on a 384-well black clear bottom plate (BD Falcon) at 5,000 cells/well, and cultured in an incubator at 37° C., 5% CO2 for 1 day. The medium in the cell plate was removed, and assay buffer A containing calcium indicator (Recording medium (DOJINDO LABORATORIES), 0.1% BSA (Wako Pure Chemical Industries, Ltd.), 2.5 μg/mL Fluo-4 AM (DOJINDO LABORATORIES), 0.08% Pluronic F127 (DOJINDO LABORATORIES), 1.25 mM probenecid (DOJINDO LABORATORIES)) was added at 30 μL/well. The cells were left standing in the incubator at 37° C., 5% CO2 for 30 min, and further left standing at room temperature for 30 min. A test compound prepared by diluting with assay buffer B (HBSS (Invitrogen), 20 mM HEPES (Invitrogen), 0.1% BSA) containing 2.4-3.2 nM acetylcholine was added at 10 μL/well, and the fluorescence was measured by FLIPRtetra (Molecular Devices) for 1 min every for 1 second. With the definition that the amount of change in the fluorescence on addition of acetylcholine (final concentration 1 μM) is 100% and that on addition of DMSO instead of a test compound is 0%, the activity (%) of the test compound was calculated, and the inflection point in the concentration-dependent curve of the test compound was calculated as IP values.

Row | Compound | activity (%) at 10 μM
1 | Cc1cnc(C(=O)N[C@H]2CCCC[C@@H]2O)cc1Cc1ccc(-c2ccn(C)n2)cc1F [Example 10, 4-(2-fluoro-4-(1-methyl-1H-pyrazol-3-yl)benzyl)-N-((1S,2S)-2-hydroxycyclohexyl)-5-methylpyridine-2-carboxamide] | 89%
2 | Cc1nc(C(=O)N[C@H]2CCC[C@@H]2O)cc(Cc2ccc(-c3ccn(C)n3)nc2)c1C [Example 117, N-((1S,2S)-2-hydroxycyclopentyl)-5,6-dimethyl-4-((6-(1-methyl-1H-pyrazol-3-yl)pyridin-3-yl)methyl)pyridine-2-carboxamide] | 106%
3 | Cc1nc(C(=O)N[C@H]2CCCC[C@@H]2O)cc(Cc2ccc(Cl)nc2)c1C [Example 73, 4-((6-chloropyridin-3-yl)methyl)-N-((1S,2S)-2-hydroxycyclohexyl)-5,6-dimethylpyridine-2-carboxamide] | 94%
4 | Cc1cnc(C(=O)N[C@H]2COCC[C@@H]2O)cc1Cc1ccc(-c2ccn(C)n2)cc1 [Example 2, 1,5-anhydro-2,4-dideoxy-2-(((5-methyl-4-(4-(1-methyl-1H-pyrazol-3-yl)benzyl)pyridin-2-yl)carbonyl)amino)-L-threo-pentitol] | 100%
5 | Cc1nc(C(=O)N[C@H]2COCC[C@@H]2O)cc(Cc2ccc(Cl)nc2)c1C [Example 85, 1,5-anhydro-2-(((4-((6-chloropyridin-3-yl)methyl)-5,6-dimethylpyridin-2-yl)carbonyl)amino)-2,4-dideoxy-L-threo-pentitol] | 99%
6 | Cc1cnc(C(=O)NC2COC2)cc1Cc1ccc(-c2ccn(C)n2)cc1 [Example 26, 5-methyl-4-(4-(1-methyl-1H-pyrazol-3-yl)benzyl)-N-(oxetan-3-yl)pyridine-2-carboxamide] | 59%
7 | Cc1cnc(C(=O)N[C@H]2CCCC[C@@H]2O)cc1Cc1ccc(-n2cccn2)cc1F [Example 12, 4-(2-fluoro-4-(1H-pyrazol-1-yl)benzyl)-N-((1S,2S)-2-hydroxycyclohexyl)-5-methylpyridine-2-carboxamide] | 113%
8 | COc1cnc(C(=O)N[C@H]2CCCC[C@@H]2O)cc1Cc1ccc(-n2cccn2)cc1 [Example 63, N-((1S,2S)-2-Hydroxycyclohexyl)-5-methoxy-4-(4-(1H-pyrazol-1-yl)benzyl)pyridine-2-carboxamide] | 94%
9 | O=C(N[C@H]1COCC[C@@H]1O)c1cc(Cc2ccc(-n3cccn3)cc2)c(Cl)cn1 [Example 8, 1,5-anhydro-2-(((5-chloro-4-(4-(1H-pyrazol-1-yl)benzyl)pyridin-2-yl)carbonyl)amino)-2,4-dideoxy-L-threo-pentitol Hydrochloride] | 92%
10 | O=C(N[C@H]1CCCC[C@@H]1O)c1cc(Cc2ccc(-n3cccn3)cc2)c(C2CC2)cn1 [Example 46, 5-cyclopropyl-N-((1S,2S)-2-hydroxycyclohexyl)-4-(4-(1H-pyrazol-1-yl)benzyl)pyridine-2-carboxamide] | 101%
11 | COc1cc(Cc2ccc(-n3cccn3)cc2)cc(C(=O)N[C@H]2CCC[C@@H]2O)n1 [Example 68, N-((1S,2S)-2-hydroxycyclopentyl)-6-methoxy-4-(4-(1H-pyrazol-1-yl)benzyl)pyridine-2-carboxamide] | 96%
12 | COc1nc(C(=O)N[C@H]2COCC[C@@H]2O)cc(Cc2ccc(-c3ccn(C)n3)cc2)c1C [Example 87, 1,5-anhydro-2,4-dideoxy-2-(((6-methoxy-5-methyl-4-(4-(1-methyl-1H-pyrazol-3-yl)benzyl)pyridin-2-yl)carbonyl)amino)-L-threo-pentitol] | 92%
13 | O=C(N[C@H]1CCC[C@@H]1O)c1cc(Cc2ccc(-n3cccn3)cc2)c(C(F)F)cn1 [Example 37, 5-(difluoromethyl)-N-((1S,2S)-2-hydroxycyclopentyl)-4-(4-(1H-pyrazol-1-yl)benzyl)pyridine-2-carboxamide] | 106%
14 | Cc1cnc(C(=O)N[C@H]2CCCC[C@@H]2O)cc1Cc1ccc(-c2ccn(C)n2)cc1 [Example 9, N-((1S,2S)-2-hydroxycyclohexyl)-5-methyl-4-(4-(1-methyl-1H-pyrazol-3-yl)benzyl)pyridine-2-carboxamide] | 91%
15 | O=C(N[C@H]1COCC[C@@H]1O)c1cc(Cc2ccc(-n3cccn3)cc2)c(OC(F)F)cn1 [Example 95, 1,5-anhydro-2,4-dideoxy-2-(((5-(difluoromethoxy)-4-(4-(1H-pyrazol-1-yl)benzyl)pyridin-2-yl)carbonyl)amino)-L-threo-pentitol] | 99%
16 | Cc1nc(C(=O)N[C@H]2COCC[C@@H]2O)cc(Cc2ccc(C#N)cc2)c1Cl [Example 101, 1,5-anhydro-2-(((5-chloro-4-(4-cyanobenzyl)-6-methylpyridin-2-yl)carbonyl)amino)-2,4-dideoxy-L-threo-pentitol] | 105%
17 | O=C(N[C@H]1CCCC[C@@H]1O)c1cc(Cc2ccc(-n3cccn3)cc2)c(F)cn1 [Example 55, 5-fluoro-N-((1S,2S)-2-hydroxycyclohexyl)-4-(4-(1H-pyrazol-1-yl)benzyl)pyridine-2-carboxamide] | 97%
18 | Cc1cnc(C(=O)N[C@H]2COCC[C@@H]2O)cc1Cc1ccc(-n2cccn2)cc1 [Example 49, 1,5-anhydro-2,4-dideoxy-2-(((5-methyl-4-(4-(1H-pyrazol-1-yl)benzyl)pyridin-2-yl)carbonyl)amino)-L-threo-pentitol] | 99%
19 | Cc1cnc(C(=O)N[C@H]2COCC[C@@H]2O)cc1Cc1ccc(-c2ccn(C)n2)cc1F [Example 16, 1,5-anhydro-2,4-dideoxy-2-(((4-(2-fluoro-4-(1-methyl-1H-pyrazol-3-yl)benzyl)-5-methylpyridin-2-yl)carbonyl)amino)-L-threo-pentitol] | 91%
20 | Cc1nc(C(=O)N[C@H]2COCC[C@@H]2O)cc(Cc2ccc(-n3cccn3)cc2)c1C [Example 78, 1,5-anhydro-2,4-dideoxy-2-(((5,6-dimethyl-4-(4-(1H-pyrazol-1-yl)benzyl)pyridin-2-yl)carbonyl)amino)-L-threo-pentitol] | 104%
21 | COc1nc(C(=O)N[C@H]2CCCC[C@@H]2O)cc(Cc2ccc(-n3cccn3)cc2)c1C [Example 91, N-((1S,2S)-2-hydroxycyclohexyl)-6-methoxy-5-methyl-4-(4-(1H-pyrazol-1-yl)benzyl)pyridine-2-carboxamide] | 98%
22 | Cc1nc(C(=O)N[C@H]2COCC[C@@H]2O)cc(Cc2ccc(-n3cccn3)cc2)c1C#N [Example 113, 1,5-anhydro-2-(((5-cyano-6-methyl-4-(4-(1H-pyrazol-1-yl)benzyl)pyridin-2-yl)carbonyl)amino)-2,4-dideoxy-L-threo-pentitol] | 94%
23 | COc1ccc(Cc2cc(C(=O)N[C@H]3COCC[C@@H]3O)nc(C)c2C)cc1 [Example 83, 1,5-anhydro-2,4-dideoxy-2-(((4-(4-methoxybenzyl)-5,6-dimethylpyridin-2-yl)carbonyl)amino)-L-threo-pentitol] | 103%
24 | COc1nc(C(=O)N[C@H]2CCC[C@@H]2O)cc(Cc2ccc(-c3ccn(C)n3)cc2)c1C [Example 90, N-((1S,2S)-2-hydroxycyclopentyl)-6-methoxy-5-methyl-4-(4-(1-methyl-1H-pyrazol-3-yl)benzyl)pyridine-2-carboxamide] | 106%
25 | Cc1nc(C(=O)N[C@H]2CCCC[C@@H]2O)cc(Cc2ccc(-c3ccn(C)n3)cc2)c1C#N [Example 114, 5-cyano-N-((1S,2S)-2-hydroxycyclohexyl)-6-methyl-4-(4-(1-methyl-1H-pyrazol-3-yl)benzyl)pyridine-2-carboxamide] | 94%
26 | Cc1cc(Cc2ccc(-n3cccn3)cc2)cc(C(=O)N[C@H]2CCCC[C@@H]2O)n1 [Example 70, N-((1S,2S)-2-hydroxycyclohexyl)-6-methyl-4-(4-(1H-pyrazol-1-yl)benzyl)pyridine-2-carboxamide] | 87%
